Tests used:
Type in all cases: biochemical
B-Raf V600E = B-Raf V600E (Homo sapiens, UniProt P15056, V600E); assay: Kinase activity assay, B-Raf V600E; conditions: Table 1c; read-out: activity toward kinase B-Raf V600E, IC50
Source text: (§1) Assays for the activity of kinases, including, but not limited to, Fms, Kit, B-Raf, B-Raf V600E, c-Raf-1, and TrkA are known in the art, for example as described in US Patent Publication Number US20070032519 and U.S. patent application Ser. No. 11/473,347 (see also, PCT publication WO2007002433), the disclosures of which are hereby incorporated by reference with respect to such assays.

Flt-3 = biological target: T1, Flt-3 (Homo sapiens, UniProt P36888); assay: Kinase activity assay, Flt-3; conditions: Table 1g; read-out: activity toward kinase Flt-3, IC50
T1 sequence (P36888 27-993): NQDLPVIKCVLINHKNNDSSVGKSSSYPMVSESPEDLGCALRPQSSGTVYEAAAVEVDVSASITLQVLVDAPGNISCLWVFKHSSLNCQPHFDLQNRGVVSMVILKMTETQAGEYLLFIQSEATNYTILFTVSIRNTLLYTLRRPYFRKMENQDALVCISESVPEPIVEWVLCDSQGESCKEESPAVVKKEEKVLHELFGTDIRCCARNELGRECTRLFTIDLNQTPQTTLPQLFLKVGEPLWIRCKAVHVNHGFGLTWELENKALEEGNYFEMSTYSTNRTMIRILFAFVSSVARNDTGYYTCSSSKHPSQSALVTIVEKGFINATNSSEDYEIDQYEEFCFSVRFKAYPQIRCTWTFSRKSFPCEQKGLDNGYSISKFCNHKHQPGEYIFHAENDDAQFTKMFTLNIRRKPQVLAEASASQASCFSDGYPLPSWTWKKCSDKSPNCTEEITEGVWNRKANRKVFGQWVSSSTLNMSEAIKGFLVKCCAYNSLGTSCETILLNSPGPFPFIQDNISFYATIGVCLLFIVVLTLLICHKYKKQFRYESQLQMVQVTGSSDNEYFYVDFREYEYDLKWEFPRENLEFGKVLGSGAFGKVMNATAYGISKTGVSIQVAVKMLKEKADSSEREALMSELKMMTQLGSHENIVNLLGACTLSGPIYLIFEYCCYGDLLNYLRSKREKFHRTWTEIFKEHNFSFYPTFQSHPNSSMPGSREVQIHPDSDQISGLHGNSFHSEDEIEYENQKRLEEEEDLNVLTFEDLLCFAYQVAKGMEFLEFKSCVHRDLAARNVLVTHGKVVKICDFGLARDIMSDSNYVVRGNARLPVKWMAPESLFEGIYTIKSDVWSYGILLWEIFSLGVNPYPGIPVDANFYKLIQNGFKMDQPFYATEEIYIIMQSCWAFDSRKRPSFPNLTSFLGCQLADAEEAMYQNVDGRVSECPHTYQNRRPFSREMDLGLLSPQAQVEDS
Source text: as §1

Fms = Fms (Homo sapiens, UniProt P07333); assay: Kinase activity assay, Fms; conditions: Table 1h; read-out: activity toward kinase Fms, IC50
Source text: as §1

Kdr = Kdr (Homo sapiens, UniProt P35968); assay: Kinase activity assay, Kdr; conditions: Table 1i; read-out: activity toward kinase Kdr, IC50
Source text: as §1

Kit = Kit (Homo sapiens, UniProt P10721); assay: Kinase activity assay, Kit; conditions: Table 1j; read-out: activity toward kinase Kit, IC50
Source text: as §1

C-Raf = C-Raf (Homo sapiens, UniProt P04049); assay: Kinase activity assay, C-Raf; conditions: Table 1d; read-out: activity toward kinase C-Raf, IC50
Source text: as §1

TrkA = TrkA (Homo sapiens, UniProt P04629); assay: Kinase activity assay, TrkA; conditions: Table 1m; read-out: activity toward kinase TrkA, IC50
Source text: as §1

B-Raf = B-Raf (Homo sapiens, UniProt P15056); assay: Kinase activity assay, B-Raf; conditions: Table 1b; read-out: activity toward kinase B-Raf, IC50
Source text: as §1

B-Raf, sequence (P15056 whole entry): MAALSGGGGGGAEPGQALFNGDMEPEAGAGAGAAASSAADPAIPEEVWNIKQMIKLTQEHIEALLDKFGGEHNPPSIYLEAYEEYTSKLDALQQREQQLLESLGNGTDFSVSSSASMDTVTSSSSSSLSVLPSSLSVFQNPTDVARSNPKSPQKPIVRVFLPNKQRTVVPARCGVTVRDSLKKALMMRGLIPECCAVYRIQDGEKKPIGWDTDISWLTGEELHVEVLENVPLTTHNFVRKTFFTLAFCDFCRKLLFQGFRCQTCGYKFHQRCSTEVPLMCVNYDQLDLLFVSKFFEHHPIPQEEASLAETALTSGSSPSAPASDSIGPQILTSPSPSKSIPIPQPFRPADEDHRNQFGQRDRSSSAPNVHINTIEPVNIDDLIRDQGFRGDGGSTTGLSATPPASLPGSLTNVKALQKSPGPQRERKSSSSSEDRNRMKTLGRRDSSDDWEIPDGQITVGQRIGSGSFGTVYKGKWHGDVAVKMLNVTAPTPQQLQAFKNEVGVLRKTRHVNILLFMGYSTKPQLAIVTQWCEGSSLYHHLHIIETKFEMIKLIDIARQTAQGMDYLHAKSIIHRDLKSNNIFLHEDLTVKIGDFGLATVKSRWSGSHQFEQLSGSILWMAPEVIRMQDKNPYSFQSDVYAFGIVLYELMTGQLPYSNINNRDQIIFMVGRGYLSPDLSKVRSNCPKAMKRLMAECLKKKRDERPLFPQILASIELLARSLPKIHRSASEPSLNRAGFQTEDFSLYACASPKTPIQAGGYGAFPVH
Kdr, sequence (P35968 20-1356): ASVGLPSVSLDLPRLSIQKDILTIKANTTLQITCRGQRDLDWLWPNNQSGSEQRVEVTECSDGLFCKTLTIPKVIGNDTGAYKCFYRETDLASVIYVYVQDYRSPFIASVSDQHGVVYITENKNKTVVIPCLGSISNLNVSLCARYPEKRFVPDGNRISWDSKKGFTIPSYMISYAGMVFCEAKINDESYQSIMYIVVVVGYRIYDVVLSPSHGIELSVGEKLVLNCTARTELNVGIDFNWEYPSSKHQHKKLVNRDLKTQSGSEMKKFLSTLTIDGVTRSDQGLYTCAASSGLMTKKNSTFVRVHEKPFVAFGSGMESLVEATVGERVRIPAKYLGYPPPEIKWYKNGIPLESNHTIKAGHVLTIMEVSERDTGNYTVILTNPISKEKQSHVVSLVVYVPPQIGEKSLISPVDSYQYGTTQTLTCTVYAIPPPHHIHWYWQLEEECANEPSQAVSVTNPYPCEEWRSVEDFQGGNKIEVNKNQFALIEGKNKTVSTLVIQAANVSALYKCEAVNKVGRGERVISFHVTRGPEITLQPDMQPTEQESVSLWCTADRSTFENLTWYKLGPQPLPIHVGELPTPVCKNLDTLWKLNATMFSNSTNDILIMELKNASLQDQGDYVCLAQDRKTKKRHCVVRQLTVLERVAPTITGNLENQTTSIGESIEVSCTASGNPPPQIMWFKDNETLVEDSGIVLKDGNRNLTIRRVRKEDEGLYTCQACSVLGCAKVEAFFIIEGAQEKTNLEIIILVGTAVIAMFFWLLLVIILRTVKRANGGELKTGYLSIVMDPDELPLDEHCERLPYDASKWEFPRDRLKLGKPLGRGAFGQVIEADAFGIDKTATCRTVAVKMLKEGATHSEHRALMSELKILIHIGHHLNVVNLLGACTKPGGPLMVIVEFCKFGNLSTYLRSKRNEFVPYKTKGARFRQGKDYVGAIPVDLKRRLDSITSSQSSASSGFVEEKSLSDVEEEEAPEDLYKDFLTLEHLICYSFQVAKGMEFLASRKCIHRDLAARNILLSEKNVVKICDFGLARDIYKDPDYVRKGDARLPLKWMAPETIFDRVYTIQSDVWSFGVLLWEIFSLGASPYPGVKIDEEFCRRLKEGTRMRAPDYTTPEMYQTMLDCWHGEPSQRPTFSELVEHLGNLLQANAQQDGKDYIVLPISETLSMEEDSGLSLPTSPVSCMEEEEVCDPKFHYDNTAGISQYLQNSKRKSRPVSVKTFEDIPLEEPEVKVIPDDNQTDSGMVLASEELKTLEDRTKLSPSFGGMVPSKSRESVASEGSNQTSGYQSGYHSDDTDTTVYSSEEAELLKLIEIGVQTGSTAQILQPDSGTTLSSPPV
Fms, sequence (P07333 20-972): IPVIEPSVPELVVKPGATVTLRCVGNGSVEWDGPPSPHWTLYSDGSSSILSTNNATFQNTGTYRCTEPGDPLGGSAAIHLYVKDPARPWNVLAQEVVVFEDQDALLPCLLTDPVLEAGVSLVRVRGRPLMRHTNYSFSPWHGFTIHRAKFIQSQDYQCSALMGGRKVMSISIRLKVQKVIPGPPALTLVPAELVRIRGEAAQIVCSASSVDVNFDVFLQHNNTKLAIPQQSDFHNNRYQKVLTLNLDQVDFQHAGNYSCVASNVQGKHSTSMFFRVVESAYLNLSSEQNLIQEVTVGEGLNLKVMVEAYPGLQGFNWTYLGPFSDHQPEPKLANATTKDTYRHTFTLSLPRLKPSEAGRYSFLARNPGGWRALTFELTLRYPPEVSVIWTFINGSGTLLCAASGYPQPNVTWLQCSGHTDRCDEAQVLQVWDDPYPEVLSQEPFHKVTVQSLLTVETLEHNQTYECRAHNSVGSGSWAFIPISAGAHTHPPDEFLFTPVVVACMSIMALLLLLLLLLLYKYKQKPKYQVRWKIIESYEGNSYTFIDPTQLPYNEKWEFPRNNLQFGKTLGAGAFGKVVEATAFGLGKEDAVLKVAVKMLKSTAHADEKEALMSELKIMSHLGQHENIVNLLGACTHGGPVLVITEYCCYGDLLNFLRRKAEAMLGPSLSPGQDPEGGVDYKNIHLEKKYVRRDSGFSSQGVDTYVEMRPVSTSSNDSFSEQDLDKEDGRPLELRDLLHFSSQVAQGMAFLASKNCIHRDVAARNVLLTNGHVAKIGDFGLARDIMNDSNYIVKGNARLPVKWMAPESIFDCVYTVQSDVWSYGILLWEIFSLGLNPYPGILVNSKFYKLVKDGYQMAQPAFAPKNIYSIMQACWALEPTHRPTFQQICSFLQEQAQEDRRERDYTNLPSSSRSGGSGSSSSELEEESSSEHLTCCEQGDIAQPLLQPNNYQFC
TrkA, sequence (P04629 33-796): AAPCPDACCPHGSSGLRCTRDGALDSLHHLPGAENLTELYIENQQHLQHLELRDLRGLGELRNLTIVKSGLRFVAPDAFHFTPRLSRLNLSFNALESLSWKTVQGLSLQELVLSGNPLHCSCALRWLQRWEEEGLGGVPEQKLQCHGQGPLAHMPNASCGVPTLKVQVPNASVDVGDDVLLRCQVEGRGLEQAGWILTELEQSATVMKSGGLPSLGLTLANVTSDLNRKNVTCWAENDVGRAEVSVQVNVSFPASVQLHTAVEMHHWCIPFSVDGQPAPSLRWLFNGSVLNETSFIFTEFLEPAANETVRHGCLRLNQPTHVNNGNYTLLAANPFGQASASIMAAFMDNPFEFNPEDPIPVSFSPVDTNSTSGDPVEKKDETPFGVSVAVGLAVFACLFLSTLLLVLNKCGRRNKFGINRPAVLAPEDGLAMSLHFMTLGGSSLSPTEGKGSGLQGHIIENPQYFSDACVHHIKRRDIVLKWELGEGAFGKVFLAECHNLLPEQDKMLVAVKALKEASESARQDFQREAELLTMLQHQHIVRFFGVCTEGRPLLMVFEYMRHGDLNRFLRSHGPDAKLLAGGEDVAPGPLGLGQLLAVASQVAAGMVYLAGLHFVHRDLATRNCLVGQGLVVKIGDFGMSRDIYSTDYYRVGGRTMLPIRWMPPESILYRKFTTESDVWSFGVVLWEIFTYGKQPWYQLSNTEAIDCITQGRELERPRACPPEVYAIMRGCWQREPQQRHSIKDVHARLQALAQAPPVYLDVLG
Kit, sequence (P10721 26-976): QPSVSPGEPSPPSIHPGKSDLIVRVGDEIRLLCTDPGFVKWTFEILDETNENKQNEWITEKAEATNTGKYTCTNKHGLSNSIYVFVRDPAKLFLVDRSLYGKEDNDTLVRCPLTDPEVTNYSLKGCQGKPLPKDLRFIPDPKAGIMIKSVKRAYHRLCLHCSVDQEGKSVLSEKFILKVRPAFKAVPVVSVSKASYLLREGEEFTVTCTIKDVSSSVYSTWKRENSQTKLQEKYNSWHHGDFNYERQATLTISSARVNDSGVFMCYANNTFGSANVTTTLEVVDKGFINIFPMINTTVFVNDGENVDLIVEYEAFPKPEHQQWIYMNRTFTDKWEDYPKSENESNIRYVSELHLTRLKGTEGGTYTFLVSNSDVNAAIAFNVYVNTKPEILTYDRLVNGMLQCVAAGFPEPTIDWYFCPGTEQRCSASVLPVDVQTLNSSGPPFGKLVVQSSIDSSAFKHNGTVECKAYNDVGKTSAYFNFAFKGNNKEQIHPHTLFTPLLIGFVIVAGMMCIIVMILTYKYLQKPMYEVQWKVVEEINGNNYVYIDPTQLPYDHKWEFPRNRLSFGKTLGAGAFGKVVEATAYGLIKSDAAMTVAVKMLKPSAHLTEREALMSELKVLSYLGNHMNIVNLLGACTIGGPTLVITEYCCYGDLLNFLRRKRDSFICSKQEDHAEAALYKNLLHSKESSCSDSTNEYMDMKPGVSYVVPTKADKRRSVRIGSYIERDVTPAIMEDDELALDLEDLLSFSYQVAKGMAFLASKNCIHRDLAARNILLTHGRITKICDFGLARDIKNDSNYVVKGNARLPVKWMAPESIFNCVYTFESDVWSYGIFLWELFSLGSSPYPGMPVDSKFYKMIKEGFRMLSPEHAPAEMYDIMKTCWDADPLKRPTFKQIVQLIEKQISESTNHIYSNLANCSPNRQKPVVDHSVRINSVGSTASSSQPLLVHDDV
B-Raf V600E, sequence (P15056 whole entry V600E): as the sequence (P15056 whole entry) above, with V600E counted along it

SMILES | IC50 (B-Raf V600E) | IC50 (Flt-3) | IC50 (Fms) | IC50 (Kdr) | IC50 (Kit) | IC50 (C-Raf) | IC50 (TrkA) | IC50 (B-Raf)
FC(F)(F)c1ccc(CNc2ccc(Cc3c[nH]c4ncncc34)cn2)cn1 [P-0004, [5-(7H-Pyrrolo[2,3-d]pyrimidin-5-ylmethyl)-pyridin-2-yl]-(6-trifluoromethyl-pyridin-3-ylmethyl)-amine] | ≤ 10 µM | – | ≤ 10 µM | ≤ 10 µM | ≤ 10 µM | ≤ 10 µM | – | –
COc1ncc(CNc2ccc(Cc3c[nH]c4ncncc34)c(F)n2)cc1F [P-0010, (5-Fluoro-6-methoxy-pyridin-3-ylmethyl)-[6-fluoro-5-(7H-pyrrolo[2,3-d]pyrimidin-5-ylmethyl)-pyridin-2-yl]-amine] | – | ≤ 10 µM | ≤ 10 µM | ≤ 10 µM | – | – | ≤ 10 µM | –
Fc1ccc(CNc2ccc(Cc3c[nH]c4ncncc34)c(F)n2)nc1 [P-0041, (5-Fluoro-pyridin-2-ylmethyl)-[6-fluoro-5-(7H-pyrrolo[2,3-d]pyrimidin-5-ylmethyl)-pyridin-2-yl]-amine] | ≤ 10 µM | – | ≤ 10 µM | ≤ 10 µM | ≤ 10 µM | ≤ 10 µM | – | –
Fc1nc(NCc2cccnc2OCC(F)(F)F)ccc1Cc1c[nH]c2ncncc12 [P-0051, [6-Fluoro-5-(7H-pyrrolo[2,3-d]pyrimidin-5-ylmethyl)-pyridin-2-yl]-[2-(2,2,2-trifluoro-ethoxy)-pyridin-3-ylmethyl]-amine] | ≤ 10 µM | – | ≤ 10 µM | ≤ 10 µM | ≤ 10 µM | ≤ 10 µM | ≤ 10 µM | –
CS(=O)(=O)c1ccc(F)cc1CNc1ccc(Cc2c[nH]c3ncncc23)c(F)n1 [P-0052, (5-Fluoro-2-methanesulfonyl-benzyl)-[6-fluoro-5-(7H-pyrrolo[2,3-d]pyrimidin-5-ylmethyl)-pyridin-2-yl]-amine] | ≤ 10 µM | – | ≤ 10 µM | – | – | ≤ 10 µM | ≤ 10 µM | ≤ 10 µM
CC(C)Oc1ncccc1CNc1ccc(Cc2c[nH]c3ncncc23)c(F)n1 [P-0057, [6-Fluoro-5-(7H-pyrrolo[2,3-d]pyrimidin-5-ylmethyl)-pyridin-2-yl]-(2-isopropoxy-pyridin-3-ylmethyl)-amine] | – | – | ≤ 10 µM | ≤ 10 µM | ≤ 10 µM | ≤ 10 µM | ≤ 10 µM | –
Fc1nc(NCc2cccnc2OC2CCCC2)ccc1Cc1c[nH]c2ncncc12 [P-0070, (2-Cyclopentyloxy-pyridin-3-ylmethyl)-[6-fluoro-5-(7H-pyrrolo[2,3-d]pyrimidin-5-ylmethyl)-pyridin-2-yl]-amine] | ≤ 10 µM | – | ≤ 10 µM | ≤ 10 µM | ≤ 10 µM | ≤ 10 µM | ≤ 10 µM | ≤ 10 µM
c1cnc(OC2CCCC2)c(CNc2ncc(Cc3c[nH]c4ncncc34)cn2)c1 [P-0086, (2-Cyclopentyloxy-pyridin-3-ylmethyl)-[5-(7H-pyrrolo[2,3-d]pyrimidin-5-ylmethyl)-pyrimidin-2-yl]-amine] | ≤ 10 µM | – | ≤ 10 µM | ≤ 10 µM | ≤ 10 µM | ≤ 10 µM | – | ≤ 10 µM
COc1ncc(CNc2ccc(Cc3c[nH]c4ncnc(OC)c34)c(F)n2)cc1F [P-0091, (5-Fluoro-6-methoxy-pyridin-3-ylmethyl)-[6-fluoro-5-(4-methoxy-7H-pyrrolo[2,3-d]pyrimidin-5-ylmethyl)-pyridin-2-yl]-amine] | ≤ 10 µM | – | ≤ 10 µM | ≤ 10 µM | ≤ 10 µM | – | ≤ 10 µM | –
COc1ncc(F)cc1CNc1ccc(Cc2c[nH]c3ncnc(OC)c23)c(F)n1 [P-0094, (5-Fluoro-2-methoxy-pyridin-3-ylmethyl)-[6-fluoro-5-(4-methoxy-7H-pyrrolo[2,3-d]pyrimidin-5-ylmethyl)-pyridin-2-yl]-amine] | – | – | ≤ 10 µM | ≤ 10 µM | ≤ 10 µM | – | ≤ 10 µM | –
COc1cc(Cc2c[nH]c3ncnc(OC)c23)cnc1NCc1ccc(C(F)(F)F)nc1 [P-0096, [3-Methoxy-5-(4-methoxy-7H-pyrrolo[2,3-d]pyrimidin-5-ylmethyl)-pyridin-2-yl]-(6-trifluoromethyl-pyridin-3-ylmethyl)-amine] | – | – | ≤ 10 µM | ≤ 10 µM | ≤ 10 µM | ≤ 10 µM | – | ≤ 10 µM

The next lines start with the values.

IC50 (B-Raf V600E) | IC50 (Flt-3) | IC50 (Fms) | IC50 (Kdr) | IC50 (Kit) | IC50 (C-Raf) | IC50 (TrkA) | IC50 (B-Raf) | SMILES
≤ 10 µM | ≤ 10 µM | ≤ 10 µM | ≤ 10 µM | ≤ 10 µM | – | – | – | COc1ccc(CNc2ccc(Cc3c[nH]c4ncncc34)cn2)cn1 [P-0002, (6-Methoxy-pyridin-3-ylmethyl)-[5-(7H-pyrrolo[2,3-d]pyrimidin-5-ylmethyl)-pyridin-2-yl]-amine]
≤ 10 µM | ≤ 10 µM | – | ≤ 10 µM | ≤ 10 µM | – | – | – | COc1ccc(CNc2ccc(C(=O)c3c[nH]c4ncncc34)cn2)cn1 [P-0008, {6-[(6-Methoxy-pyridin-3-ylmethyl)-amino]-pyridin-3-yl}-(7H-pyrrolo[2,3-d]pyrimidin-5-yl)-methanone]
≤ 10 µM | – | ≤ 10 µM | ≤ 10 µM | – | ≤ 10 µM | – | – | Fc1nc(NCc2ccc(N3CCOCC3)nc2)ccc1Cc1c[nH]c2ncncc12 [P-0039, [6-Fluoro-5-(7H-pyrrolo[2,3-d]pyrimidin-5-ylmethyl)-pyridin-2-yl]-(6-morpholin-4-yl-pyridin-3-ylmethyl)-amine]
– | – | ≤ 10 µM | ≤ 10 µM | ≤ 10 µM | – | – | ≤ 10 µM | COc1ccc(CNc2ccc(Cc3c[nH]c4ncncc34)c(F)n2)c(OC)n1 [P-0043, (2,6-Dimethoxy-pyridin-3-ylmethyl)-[6-fluoro-5-(7H-pyrrolo[2,3-d]pyrimidin-5-ylmethyl)-pyridin-2-yl]-amine]
≤ 10 µM | – | ≤ 10 µM | ≤ 10 µM | – | ≤ 10 µM | – | – | Fc1nc(NCc2cncc(Cl)c2)ccc1Cc1c[nH]c2ncncc12 [P-0044, (5-Chloro-pyridin-3-ylmethyl)-[6-fluoro-5-(7H-pyrrolo[2,3-d]pyrimidin-5-ylmethyl)-pyridin-2-yl]-amine]
≤ 10 µM | – | ≤ 10 µM | ≤ 10 µM | ≤ 10 µM | – | ≤ 10 µM | – | Cc1cc(C)cc(CNc2ccc(Cc3c[nH]c4ncncc34)c(F)n2)c1 [P-0063, (3,5-Dimethyl-benzyl)-[6-fluoro-5-(7H-pyrrolo[2,3-d]pyrimidin-5-ylmethyl)-pyridin-2-yl]-amine]
≤ 10 µM | – | ≤ 10 µM | ≤ 10 µM | ≤ 10 µM | – | ≤ 10 µM | – | Fc1cc(Cl)cc(CNc2ccc(Cc3c[nH]c4ncncc34)c(F)n2)c1 [P-0067, (3-Chloro-5-fluoro-benzyl)-[6-fluoro-5-(7H-pyrrolo[2,3-d]pyrimidin-5-ylmethyl)-pyridin-2-yl]-amine]
– | – | ≤ 10 µM | ≤ 10 µM | ≤ 10 µM | ≤ 10 µM | – | – | COc1ncc(F)cc1CNc1ncc(Cc2c[nH]c3ncnc(OC)c23)cn1 [P-0093, (5-Fluoro-2-methoxy-pyridin-3-ylmethyl)-[5-(4-methoxy-7H-pyrrolo[2,3-d]pyrimidin-5-ylmethyl)-pyrimidin-2-yl]-amine]
– | ≤ 10 µM | ≤ 10 µM | – | ≤ 10 µM | – | – | – | FC(F)(F)c1ccc(CNc2ccc(Cc3c[nH]c4ncnc(C5CCCC5)c34)cn2)cn1 [P-0104, [5-(4-Cyclopentyl-7H-pyrrolo[2,3-d]pyrimidin-5-ylmethyl)-pyridin-2-yl]-(6-trifluoromethyl-pyridin-3-ylmethyl)-amine]

From patent US8158636B2, “Compounds and methods for kinase modulation, and indications therefor” (Plexxikon Inc., priority 2008, dated 2012)
